# Tested on: ApoA-I mRNA
# Assay: Quantification of ApoA-I mRNA in HepG2 cells (real-time PCR)
# Format: cell-based
# Parameters: key: Active: An active compound was defined as one that caused a ≧20% increase in ApoA-I mRNA at a concentration less than or equal to 100 μM
# Conditions: fold induction relative to DMSO control, concentration less than or equal to 100 μM
# Experimental: In this example, ApoA-I mRNA in tissue culture cells was quantitated to measure the transcriptional up-regulation of ApoA-I when treated with a compound of the invention.
# HepG2 cells (approximately 2×10^5 per well) were placed in a 24-well plate in approximately 400 μL MEM, supplemented with 0.5% (v/v) FBS, 24 h before addition of the compound of interest. At time of harvesting, the spent media was removed from the HepG2 cells and immediately placed on ice (for immediate use) or at −80° C. (for future use) in ApoA-I and albumin ELISAs. The cells remaining in the plate wells were rinsed in 200 μL PBS. PBS was carefully removed to avoid removing any loosely attached cells.
# Once the PBS was removed, 85 μL cell lysis solution was added the cells in each well and incubated for 5-10 minutes at room temperature, to allow for complete cell lysis and detachment. mRNA was then prepared using the “mRNA Catcher PLUS plate” from Invitrogen, according to the protocol supplied. After the last wash, as much wash buffer as possible was aspirated without allowing the wells to dry. Elution Buffer (E3, 80 μL) was then added to each well. mRNA was then eluted by incubating the mRNA Catcher PLUS plate with Elution Buffer for 5 minutes at 68° C. and then immediately placing the plate on ice.
# The eluted mRNA isolated was then used in a one-step real-time […] reaction, using components of the Ultra Sense Kit together with Applied Biosystems primer-probe mixes. Real-time PCR data was analyzed, using the Ct values, to determine the fold induction of each unknown sample, relative to the control (that is, relative to the control for each independent DMSO concentration).
# An active compound was defined as one that caused a ≧20% increase in ApoA-I mRNA at a concentration less than or equal to 100 μM.
row,Compound,Effect on ApoA-I mRNA levels
1,"CCC(C)c1ccc(-n2c(-c3ccc4[nH]ccc4c3)nc3ccccc3c2=O)cc1 (stereo not drawn) [Example 74, 3-(4-sec-butylphenyl)-2-(1H-indol-5-yl)quinazolin-4(3H)-one]",Active
2,"CCC(C)c1ccc(-n2c(-c3ccc4nc(CO)[nH]c4c3)nc3ccccc3c2=O)cc1 (stereo not drawn) [Example 75, 3-(4-sec-butylphenyl)-2-(2-(hydroxymethyl)-1H-benzo[d]imidazol-6-yl)quinazolin-4(3H)-one]",Active
3,"O=c1c2ccccc2nc(-c2cncc(-c3ccccc3)c2)n1-c1ccc(Cl)cc1 [Example 60, 3-(4-chlorophenyl)-2-(5-phenylpyridin-3-yl)quinazolin-4(3H)-one]",Active
4,"CCC(C)c1ccc(-n2c(-c3cncc(F)c3)nc3ccccc3c2=O)cc1 (stereo not drawn) [Example 37, 3-(4-sec-butylphenyl)-2-(5-fluoropyridin-3-yl)quinazolin-4(3H)-one]",Active
5,"CCC(C)c1ccc(-n2c(-c3cc(C)c(OCCO)c(C)c3)nc3ccccc3c2=O)cc1 (stereo not drawn) [1 and 2, 3-(4-sec-butylphenyl)-2-(4-(2-hydroxyethoxy)-3,5-dimethylphenyl)quinazolin-4(3H)-one]",Active
6,"CCC(C)c1ccc(-n2c(-c3ccc(Br)nc3)nc3ccccc3c2=O)cc1 (stereo not drawn) [Example 42, 2-(6-bromopyridin-3-yl)-3-(4-sec-butylphenyl)quinazolin-4(3H)-one]",Active
7,"CCC(C)c1ccc(-n2c(-c3ccc(N(CC)CC)nc3)nc3ccccc3c2=O)cc1 (stereo not drawn) [Example 44, 3-(4-sec-butylphenyl)-2-(6-(diethylamino)pyridin-3-yl)quinazolin-4(3H)-one]",Active
8,"CCC(C)c1ccc(-n2c(-c3ccc(Oc4ccccc4)nc3)nc3ccccc3c2=O)cc1 (stereo not drawn) [Example 52, 3-(4-sec-butylphenyl)-2-(6-phenoxypyridin-3-yl)quinazolin-4(3H)-one]",Active
9,"Cc1ccc(-c2nc3ccccc3c(=O)n2-c2ccc(C(C)C)cc2)cn1 [Example 65, 3-(4-isopropylphenyl)-2-(6-methylpyridin-3-yl)quinazolin-4(3H)-one]",Active
10,"O=c1c2ccccc2nc(-c2ccc3[nH]ccc3c2)n1-c1ccc(C2CCCC2)cc1 [Example 84, 3-(4-cyclopentylphenyl)-2-(1H-indol-5-yl)quinazolin-4(3H)-one]",Active
11,"Cc1cc(-c2nc3ccccc3c(=O)n2-c2ccc(NS(C)(=O)=O)cc2)cc(C)c1OCCO [Example 29, N-(4-(2-(4-(2-hydroxyethoxy)-3,5-dimethylphenyl)-4-oxoquinazolin-3(4H)-yl)phenyl)methanesulfonamide]",Active
12,"O=c1c2ccccc2nc(-c2ccc(Cl)nc2)n1-c1ccc(C2CC2)cc1 [Example 70, 2-(6-chloropyridin-3-yl)-3-(4-cyclopropylphenyl)quinazolin-4(3H)-one]",Active
13,"CCC(C)c1ccc(-n2c(-c3cncc(N(CC)CC)c3)nc3ccccc3c2=O)cc1 (stereo not drawn) [Example 59, 3-(4-sec-butylphenyl)-2-(5-(diethylamino)pyridin-3-yl)quinazolin-4(3H)-one]",Active
14,"Cc1ccc(-c2nc3ccccc3c(=O)n2-c2ccc(C3CC3)cc2)cn1 [Example 68, 3-(4-cyclopropylphenyl)-2-(6-methylpyridin-3-yl)quinazolin-4(3H)-one]",Active
15,"CCC(C)c1ccc(-n2c(-c3ccc(CN4CCOCC4)nc3)nc3ccccc3c2=O)cc1 (stereo not drawn) [Example 67, 3-(4-sec-butylphenyl)-2-(6-(morpholinomethyl)pyridin-3-yl)quinazolin-4(3H)-one]",Active
16,"CCC(C)c1ccc(-n2c(-c3cccc4[nH]ccc34)nc3ccccc3c2=O)cc1 (stereo not drawn) [Example 90, 3-(4-sec-butylphenyl)-2-(1H-indol-4-yl)quinazolin-4(3H)-one]",Active
17,"CCC(C)c1ccc(-n2c(-c3ccc4cc[nH]c4c3)nc3ccccc3c2=O)cc1 (stereo not drawn) [Example 87, 3-(4-sec-butylphenyl)-2-(1H-indol-6-yl)quinazolin-4(3H)-one]",Active
18,"O=c1c2ccccc2nc(-c2ccc3[nH]ccc3c2)n1-c1ccc(Cl)cc1 [Example 73, 3-(4-chlorophenyl)-2-(1H-indol-5-yl)quinazolin-4(3H)-one]",Active

row,Compound,Effect on ApoA-I mRNA levels
1,"O=c1c2ccccc2nc(-c2cccc3cc[nH]c23)n1-c1ccc(Cl)cc1 [Example 86, 3-(4-chlorophenyl)-2-(1H-indol-7-yl)quinazolin-4(3H)-one]",Active
2,"O=c1c2ccccc2nc(-c2ccc(C(F)(F)F)nc2)n1-c1ccc(Cl)cc1 [Example 53, 3-(4-chlorophenyl)-2-(6-(trifluoromethyl)pyridin-3-yl)quinazolin-4(3H)-one]",Active
3,"O=c1c2ccccc2nc(-c2cccc3[nH]ccc23)n1-c1ccc(Cl)cc1 [Example 89, 3-(4-chlorophenyl)-2-(1H-indol-4-yl)quinazolin-4(3H)-one]",Active
4,"Cc1ccc(-c2nc3ccccc3c(=O)n2-c2ccc(C3CCCC3)cc2)cn1 [Example 62, 3-(4-cyclopentylphenyl)-2-(6-methylpyridin-3-yl)quinazolin-4(3H)-one]",Active
5,"COc1ccc(S(=O)(=O)n2ccc3cc(-c4nc5ccccc5c(=O)n4-c4ccc(Cl)cc4)cnc32)cc1 [Example 78, 3-(4-chlorophenyl)-2-(1-(4-methoxyphenylsulfonyl)-1H-pyrrolo[2,3-b]pyridin-5-yl)quinazolin-4(3H)-one]",Active
6,"O=c1c2ccccc2nc(-c2cnc3ccccc3c2)n1-c1ccc(Cl)cc1 [Example 36, 3-(4-chlorophenyl)-2-(quinolin-3-yl)quinazolin-4(3H)-one]",Active
7,"O=c1c2ccccc2nc(-c2ccc(N3CCCCC3)nc2)n1-c1ccc(Cl)cc1 [Example 48, 3-(4-chlorophenyl)-2-(6-(piperidin-1-yl)pyridin-3-yl)quinazolin-4(3H)-one]",Active
8,"CCC(C)c1ccc(-n2c(-c3ccc(F)nc3)nc3ccccc3c2=O)cc1 (stereo not drawn) [Example 51, 3-(4-sec-butylphenyl)-2-(6-fluoropyridin-3-yl)quinazolin-4(3H)-one]",Active
9,"Cc1cc(-c2nc3ccccc3c(=O)n2-c2ccc(Cl)cc2)ccc1OCCO [Example 34, 3-(4-chlorophenyl)-2-(4-(2-hydroxyethoxy)-3-methylphenyl)quinazolin-4(3H)-one]",Active
10,"Cc1cc(-c2nc3ccccc3c(=O)n2-c2ccc(N(C)C)cc2)cc(C)c1OCCO [Example 32, 3-(4-(dimethylamino)phenyl)-2-(4-(2-hydroxyethoxy)-3,5-dimethylphenyl)quinazolin-4(3H)-one]",Active
11,"Cc1cc(-c2nc3ccccc3c(=O)n2-c2ccc(N)cc2)cc(C)c1OCCO [Example 28, 3-(4-aminophenyl)-2-(4-(2-hydroxyethoxy)-3,5-dimethylphenyl)quinazolin-4(3H)-one]",Active
12,"O=c1c2ccccc2nc(-c2ccc(Br)nc2)n1-c1ccc(Cl)cc1 [Example 41, 2-(6-bromopyridin-3-yl)-3-(4-chlorophenyl)quinazolin-4(3H)-one]",Active
13,"Cc1ccc(-c2nc3ccccc3c(=O)n2-c2ccc(N(C)C)cc2)cn1 [Example 69, 3-(4-(dimethylamino)phenyl)-2-(6-methylpyridin-3-yl)quinazolin-4(3H)-one]",Active
14,"Cc1cc(-c2nc3ccccc3c(=O)n2-c2ccc(C(C)(C)C)cc2)cc(C)c1OCCO [Example 22, 3-(4-tert-butylphenyl)-2-(4-(2-hydroxyethoxy)-3,5-dimethylphenyl)quinazolin-4(3H)-one]",Active
15,"O=c1c2ccccc2nc(-c2cncc(Br)c2)n1-c1ccc(Cl)cc1 [Example 58, 2-(5-bromopyridin-3-yl)-3-(4-chlorophenyl)quinazolin-4(3H)-one]",Active
16,"CCC(C)c1ccc(-n2c(-c3ccc(C(F)(F)F)nc3)nc3ccccc3c2=O)cc1 (stereo not drawn) [Example 54, 3-(4-sec-butylphenyl)-2-(6-(trifluoromethyl)pyridin-3-yl)quinazolin-4(3H)-one]",Active
17,"Cc1cc(-c2nc3ccccc3c(=O)n2-c2ccc(C(F)(F)F)cc2)cc(C)c1OCCO [Example 11, 2-(4-(2-hydroxyethoxy)-3,5-dimethylphenyl)-3-(4-(trifluoromethyl)phenyl)quinazolin-4(3H)-one]",Active
18,"O=c1c2ccccc2nc(-c2cnc3c(ccn3S(=O)(=O)c3ccc(F)cc3)c2)n1-c1ccc(Cl)cc1 [Example 79, 3-(4-chlorophenyl)-2-(1-(4-fluorophenylsulfonyl)-1H-pyrrolo[2,3-b]pyridin-5-yl)quinazolin-4(3H)-one]",Active

# From patent US8952021B2, “Compounds for the prevention and treatment of cardiovascular disease” (Resverlogix Corp., priority 2009, dated 2015)
